# Source: patent US20050282911A1, “Memantine for the prevention or reduction of suicidality and for treatment of major depression associated with suicidality” (priority 2003, published 2005)
# “Also recorded” adds a separate entry of the source.
# Test system: patients with depression of Alzheimer's disease
# Assay: Study MEM-MD-17: memantine in depression of Alzheimer's disease, suicide items of CSDD, MADRS, HAMD
# Type: in vivo, human
# Set-up: key to Change from Baseline in CSDD item #16 (suicide item): change in item score; 0=absent, 1=mild to intermittent, 2=severe; Change from Baseline in MADRS item #10 (suicide item) / Change from Baseline in HAMD item #3 (suicide item): scale not given here
# Procedure: The objective of this study (MEM-MD-17) was to evaluate the safety and efficacy of memantine and memantine in combination with escitalopram in patients with depression of Alzheimer's disease.
# The clinical study was conducted in two phases —12-weeks of open-label treatment with memantine (MEM) followed by 12-weeks of randomized double-blind treatment with memantine+placebo (MEM+PBO) or memantine+escitalopram (MEM+SCT).
# Study design. Patients were started on memantine 5 mg/day which was increased to 10 mg/day at end of Week 1. The dose could be further increased to a maximum of 20 mg/day in patients with inadequate response in weekly increments of 5 mg. At end of Week 12, patients were randomized to one of the two treatment groups: MEM+PBO or MEM+SCT. The dose of memantine during the double-blind treatment period was fixed at the same level as at the end of Week 12 and the dose of escitalopram was fixed at 10 mg. Dose adjustments during the double-blind period were not permitted.
# Patient Population. A total of 15 patients were enrolled in 2 sites. Three of the 15 patients discontinued during the open-label phase. The remaining 12 were randomized to double-blind treatment, 5 in the MEM+PBO treatment group, and 7 in the MEM+SCT treatment group. A total of 10 patients completed the study.
# Endpoints. Several rating scales were used to assess efficacy for depression. The Cornell Scale for Depression in Dementia (CSDD); the HAMD; and the MADRS. The HAMD and MADRS have been described above.
# CSDD. This is a […] scale which is subdivided into five sections: (A) Mood-Related Signs (questions 1-4); (B) Behavioral Disturbances (questions 5-8); (C) Physical Signs (questions 9-11); (D) Cyclic Functions (questions 12-15); and (E) Ideational Disturbances (questions 16-19). Question 16 is explicitly directed to suicidal ideation. The scoring system ranges from a=unable to evaluate; 0=absent; 1=mild to intermittent; and 2=severe.
# Statistics. The efficacy analyses were based on the ITT population using both last observation carried forward (LOCF) and observed cases (OC) approaches. For each of the parameters, descriptive statistics were presented for the actual values and change from baseline by visit. For categorical variables, frequency distributions were presented.
compound,measurement,setting,value
"CC12CC3CC(C)(C1)CC(N)(C3)C2.Cl [Memantine, 1-amino-3,5-dimethyladamantane hydrochloride]",Change from Baseline in CSDD item #16 (suicide item),"Week 12, ITT Population, N = 5 who received memantine throughout, baseline 0.4",−0.4
same,Change from Baseline in HAMD item #3 (suicide item),"Week 12, ITT Population, N = 5 who received memantine throughout, baseline 0.8",−0.8
same,Change from Baseline in MADRS item #10 (suicide item),"Week 12, ITT Population, N = 5 who received memantine throughout, baseline 1.0",−1.0
same,Change from Baseline in CSDD item #16 (suicide item),"Week 12, LOCF, ITT Population, N = 15, baseline 0.4",−0.3
same,Change from Baseline in HAMD item #3 (suicide item),"Week 12, LOCF, ITT Population, N = 15, baseline 0.5",−0.5
same,Change from Baseline in MADRS item #10 (suicide item),"Week 12, LOCF, ITT Population, N = 15, baseline 0.9",−0.6
same,Change from Baseline in CSDD item #16 (suicide item),"Week 24, ITT Population, N = 5 who received memantine throughout, baseline 0.4",−0.3
same,Change from Baseline in HAMD item #3 (suicide item),"Week 24, ITT Population, N = 5 who received memantine throughout, baseline 0.8",−0.5
same,Change from Baseline in MADRS item #10 (suicide item),"Week 24, ITT Population, N = 5 who received memantine throughout, baseline 1.0",−0.5
same,suicidality as measured by 3 different depression rating instruments,"change from Baseline at Weeks 12 and 24, hydrochloride",modest but consistent numerical improvement in suicidality; also recorded: trend towards reduced suicidal thoughts and ideation
